Experimental data as given in PubChem BioAssay (NCI).
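Dose response: 5 concentrations. Exposure: 48 h. Format: 96-well plates. Endpoint: linear interpolation; highest concentration if not reached. GI50 marks 50% less growth. TGI: concentration producing complete growth inhibition.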

Tests used:
Experiment in all cases: NCI tumour cell line growth inhibition, 48 h
EKVX NSCLC = test system: EKVX NSCLC
SF-268 CNS = test system: SF-268 CNS
SK-OV-3 ovarian = test system: SK-OV-3 ovarian
SK-MEL-28 melanoma = test system: SK-MEL-28 melanoma
TK-10 renal = test system: TK-10 renal
UACC-257 melanoma = test system: UACC-257 melanoma
NCI-H522 lung = test system: NCI-H522 lung
IGROV1 ovarian = test system: IGROV1 ovarian
KM12 colon = test system: KM12 colon
COLO 205 colon = test system: COLO 205 colon

SMILES | GI50 (EKVX NSCLC) [µM] | TGI (EKVX NSCLC) [µM] | GI50 (SF-268 CNS) [µM] | TGI (SF-268 CNS) [µM] | GI50 (SK-OV-3 ovarian) [µM] | TGI (SK-OV-3 ovarian) [µM] | GI50 (SK-MEL-28 melanoma) [µM] | TGI (SK-MEL-28 melanoma) [µM] | GI50 (TK-10 renal) [µM] | TGI (TK-10 renal) [µM] | GI50 (UACC-257 melanoma) [µM] | TGI (UACC-257 melanoma) [µM] | GI50 (NCI-H522 lung) [µM] | TGI (NCI-H522 lung) [µM] | GI50 (IGROV1 ovarian) [µM] | TGI (IGROV1 ovarian) [µM] | GI50 (KM12 colon) [µM] | TGI (KM12 colon) [µM] | GI50 (COLO 205 colon) [µM] | TGI (COLO 205 colon) [µM]
c1cnc2[nH]cc(-c3csc(-c4cn(CCCCN5CCOCC5)c5ccccc45)n3)c2c1 | 2.07 | 4.74 | 1.76 | 3.71 | 2.34 | 5.74 | 1.81 | 3.3 | 2.77 | 7.24 | 1.84 | 3.53 | 1.95 | 3.77 | 1.43 | 4.25 | 1.72 | 3.34 | 1.73 | 3.51
COc1ccc2c(c1)OC(N(C(C)=O)C(C)=O)=C(C#N)C2c1ccc(F)cc1 (stereo unspecified) | 6.37 | > 100 | 9.47 | > 100 | 2.47 | > 100 | 9.97 | > 100 | 17.5 | > 100 | 23 | > 100 | 0.619 | 18.3 | 2.82 | > 100 | 0.664 | > 100 | 2.2 | 7.26
O=C1C(Cl)=C(Nc2cccc(O)c2)C(=O)N1c1cc(Cl)c(Cl)cc1Cl | 23 | 73.7 | 19.5 | 42.5 | 20.8 | 65.3 | 18.5 | 36.3 | 23.8 | 48.6 | 30.3 | 77.2 | 14.3 | 28 | 8.87 | 21.2 | 16.5 | 34.3 | 18 | 38
N[C@H](C(=O)O)[C@H](Cl)CC(=O)O | – | > 100 | – | > 100 | – | > 100 | – | > 100 | – | > 100 | – | > 100 | – | > 100 | – | > 100 | – | > 100 | – | > 100
COc1ccc2c3c(c(=O)n(C)c2c1OC)C=CC(C)(C)O3 | – | > 100 | – | > 100 | – | > 100 | – | > 100 | – | > 100 | – | > 100 | – | > 100 | – | > 100 | – | 77 | – | 40.2
Cc1cccc(C(C)C)c1NC(=O)C(=O)CC(=O)c1c(C)n([O-])c2ccccc2[n+]1=O | – | > 100 | – | > 100 | – | > 100 | – | > 100 | – | > 100 | – | 48 | – | 53.9 | – | > 100 | – | > 100 | – | 88.3
O=C(CN1CCN(c2ccccc2)CC1)N1CCc2c([nH]c3ccccc23)C1c1cccnc1 (stereo unspecified) | – | > 100 | – | > 100 | – | > 88.3 | – | > 100 | – | > 45.7 | – | > 100 | – | > 85.7 | – | > 100 | – | > 100 | – | > 100
CN=S(=O)(c1ccccc1)c1ccccc1 | – | > 100 | – | > 100 | – | > 100 | – | > 100 | – | > 100 | – | > 100 | – | > 100 | – | > 100 | – | > 100 | – | > 100
C=C1CC[C@@H]2[C@](C)(COC(C)=O)[C@H](OC(C)=O)CC[C@@]2(C)[C@@H]1CC(Nc1ccc(S(=O)(=O)Nc2nccc(C)n2)cc1)C1=CCOC1=O (stereo partly specified) | 13.9 | 27.1 | 6.19 | 20.9 | 12.7 | 25.3 | 2.83 | 10.1 | 4.94 | 15.8 | 4.8 | 16.4 | 1.26 | 3.1 | 3.62 | 13.6 | 4.59 | 16.4 | 2.09 | 4.66
N#CC(C(=O)C(=O)NCCCNC(=O)C(=O)C(C#N)c1ccccc1)c1ccccc1 (stereo unspecified) | – | > 100 | – | > 100 | – | > 100 | – | > 100 | – | > 100 | – | > 100 | – | > 100 | – | > 100 | – | > 100 | – | > 100
CCc1cc(O)c(Cl)c(C)c1Cl | – | 33.7 | – | > 100 | – | 34.5 | – | 36.6 | – | 35.9 | – | 35.6 | – | 37.6 | – | 33.8 | – | 28.5 | – | 41.4
CC1S(=O)(=O)OCCOS1(=O)=O | – | > 100 | – | > 100 | – | > 100 | – | > 100 | – | > 100 | – | > 100 | – | > 100 | – | > 100 | – | > 100 | – | > 100
Clc1nc(Cl)c2c(ncn2C/C=C\Cn2cnc3c(Cl)nc(Cl)nc32)n1 | 1.85 | 3.5 | 1.74 | 5.49 | 2.48 | 9.07 | 1.66 | 3.02 | 1.85 | 3.45 | 1.48 | 5.9 | 0.697 | 2.1 | 0.269 | 0.771 | 1.82 | 3.41 | 1.46 | 3.01
OCCCCCCOc1ccc(-c2cc(-c3ccccn3)nc(-c3ccccn3)c2)cc1 | – | 4.97 | – | 1.32 | – | 1.59 | – | 2.72 | – | 6.66 | – | 10.2 | – | 3.32 | – | 2.7 | – | 2.42 | – | 8.09
O=C(CCl)N1c2ccccc2Sc2c1ccc1ccccc21 | 12.5 | 25.8 | 1.88 | 3.47 | 13.4 | 26.2 | 2.98 | 7.56 | 3.86 | 11.5 | 2.24 | 5.6 | 1.76 | 3.46 | – | – | 6.31 | 20.1 | 1.87 | 4.06
O=C1CC[C@@H](S(=O)(=O)c2ccccc2)[C@@H](/C=C/c2ccccc2)O1 | – | > 100 | – | – | – | > 100 | – | > 100 | – | > 100 | – | > 100 | – | > 100 | – | > 100 | – | > 100 | – | > 100
CC(=O)n1c2ccccc2c2nc3nc(Oc4ccc(C)cc4)c4ccccc4c3cc21 | – | > 100 | – | > 100 | – | > 100 | – | > 100 | – | – | – | > 100 | – | > 100 | – | > 100 | – | > 100 | – | > 100
